Measurements reported in patent US20180325889A1, “IMMUNOREGULATORY AGENTS” (FLEXUS BIOSCIENCES, INC., priority 2014, published 2018).

What follows are compounds tested against T1, human IDO1/HEK293 cells (Homo sapiens, UniProt P14902) (assay: HEK Human IDO-1 cell-based IDO inhibition assay (kynurenine production)). Conditions: HEK293 cells stably expressing human IDO1, 20 hours incubation, absorbance at 490 nm; read-out: HEK Human IDO-1 Bio Activity (IDO IC50).
T1 construct: expressed in transfected cells
T1 sequence (P14902 whole entry): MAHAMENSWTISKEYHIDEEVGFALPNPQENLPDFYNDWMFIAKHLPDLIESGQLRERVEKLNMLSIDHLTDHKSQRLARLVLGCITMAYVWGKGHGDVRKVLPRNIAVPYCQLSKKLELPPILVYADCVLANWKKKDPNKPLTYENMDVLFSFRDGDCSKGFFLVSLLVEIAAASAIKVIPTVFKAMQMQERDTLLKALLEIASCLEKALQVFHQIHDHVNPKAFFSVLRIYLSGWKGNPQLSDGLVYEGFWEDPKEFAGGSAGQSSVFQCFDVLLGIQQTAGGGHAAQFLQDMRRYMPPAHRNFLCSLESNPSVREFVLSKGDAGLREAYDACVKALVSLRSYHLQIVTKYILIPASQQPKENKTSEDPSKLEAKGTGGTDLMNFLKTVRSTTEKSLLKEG
Protocol: They were cultured in medium (DMEM with 10% FBS) containing 1 mg/ml G418 for two weeks.
The human IDO1/HEK293 cells were seeded at 10,000 cells per 50 μL per well with RPMI/phenol red free media contains 10% FBS in a 384-well black wall clear bottom tissue culture plate (Matrix Technologies LLC) 100 nL of certain concentration of compound was then added to each well using ECHO liquid handling systems. The cells were incubated for 20 hours in 37° C. incubator with 5% CO2.
The compound treatments were stopped by adding trichloroacetic acid (Sigma-Aldrich) to a final concentration at 0.2%. The cell plate was further incubated at 50° C. for 30 minute. The equal volume supernatant (20 μL) and 0.2% (w/v) Ehrlich reagent (4-dimethylaminobenzaldehyde, Sigma-Aldrich) in glacial acetic acid were mixed in a new clear bottom 384-well plate. This plate was then incubated at room temperature for 30 minute. The absorbance at 490 nm was measured on Envision plate reader.

Row | SMILES | IC50 [µM]
1 | C[C@@H](NC(=O)c1ccc(-c2cnc(C#N)nc2)cc1)[C@H]1CC[C@@H](c2ccnc3ccc(F)cc32)CC1 [Example 240, 4-(2-cyanopyrimidin-5-yl)-N-((R)-1-((1s,4S)-4-(6-fluoroquinolin-4-yl)cyclohexyl)ethyl)benzamide] | < 2
2 | COc1ccc(CN[C@H]2CC[C@H](c3ccccc3)CC2)cc1 [Example 97, trans-N-(4-Methoxybenzyl)-4-phenylcyclohexanamine] | < 0.25
3 | Cc1cc(C2CCC(C(C)NC(=O)c3ccc(Cl)cc3)CC2)ccn1 (single isomer, unassigned) [Example 157d, 4-Chloro-N-(1-(4-(2-methylpyridin-4-yl)cyclohexyl)ethyl) Benzamide] | < 2
4 | CC(NC(=O)c1ccc(Cl)cc1)C1CCC(c2ccc(C(F)(F)F)nc2)CC1 (stereo not drawn) [Example 216, 4-chloro-N-(1-(4-(6-(trifluoromcthyr)pyridin-3-yl)cyclohexyl)ethyl)benzamide] | < 0.25
5 | Cc1ncc(-c2ccc(C(=O)N[C@H](C)[C@H]3CC[C@@H](c4ccnc5ccc(F)cc54)CC3)cc2)s1 [Example 238, N-((R)-1-((1s,4S)-4-(6-fluoroquinolin-4-yl)cyclohexyl)ethyl)-4-(2-methylthiazol-5-yl)benzamide] | < 0.05
6 | CC(NC(=O)c1ccc(Cl)cc1)C1CCC(c2ccc(C(F)(F)F)nc2)CC1 (single isomer, unassigned) [Example 218, 4-chloro-N-(1-(4-(6-(trifluoromethyl)pyridin-3-yl)cyclohexyl)ethyl)benzamide] | < 2
7 | C[C@@H](NC(=O)c1ccccc1Cl)[C@H]1CC[C@@H](c2ccnc3ccc(F)cc32)CC1 [Example 56, 2-chloro-N-((R)-1-((1s,4S)-4-(6-fluoroquinolin-4-yl)cyclohexyl)ethyl)benzamide] | < 0.05
8 | C[C@@H](NC(=O)c1ccc(C2(C)CC2)cc1)[C@H]1CC[C@@H](c2ccnc3ccc(F)cc32)CC1 [Example 248, N-((R)-1-((1s,4S)-4-(6-fluoroquinolin-4-yl)cyclohexyl)ethyl)-4-(1-methylcyclopropyl)benzamide] | < 0.05
9 | C[C@@H](NS(=O)(=O)c1cccc(Cl)c1)[C@H]1CC[C@@H](c2ccnc3ccc(F)cc32)CC1 [Example 44, 3-chloro-N-((R)-1-((1s,4S)-4-(6-fluoroquinolin-4-yl)cyclohexyl)ethyl)benzenesulfonamide] | < 0.05
10 | CCC(NC(=O)c1ccc(Cl)cc1)[C@H]1CC[C@@H](Oc2ccncc2)CC1 (mixture of isomers) [Example 77a, (±)-4-Chloro-N-(1-((cis)-4-(pyridin-4-yloxy)cyclohexyl)propyl)benzamide] | < 0.25
11 | CCC(NC(=O)c1ccc(-c2ccccc2)cc1)C1CCC(c2ccnc3ccc(F)cc23)CC1 (stereo not drawn) [Example 258, N-(1-(4-(6-fluoroquinolin-4-yl)cyclohexyl)propyl)bi-phenyl-4-carboxamide] | < 0.05
12 | C[C@@H](NC(=O)c1cccc(Cl)c1)[C@H]1CC[C@@H](c2ccnc3ccc(F)cc32)CC1 [Example 57, 3-chloro-N-((R)-1-((1s,4S)-4-(6-fluoroquinolin-4-yl)cyclohexyl)ethyl)benzamide] | < 0.05
13 | CC(NC(=O)c1ccc(Cl)cc1)C1CCC(c2ccnc(C(F)(F)F)c2)CC1 (single isomer, unassigned) [Example 214, 4-chloro-N-(1-(4-(2-(trifluorornethyl)pyridin-4-yl)cyclohexyl)ethyl)benzamide] | < 0.25
14 | O=C(NCC1CCN(c2ccnc3ccc(F)cc23)CC1)c1cccc(Cl)c1 [Example 90] | < 2
15 | COc1nc(-c2ccc(C(=O)N[C@H](C)[C@H]3CC[C@@H](c4ccnc5ccc(F)cc54)CC3)cc2)cs1 [Example 241, N-((R)-1-((1s,4S)-4-(6-fluoroquinolin-4-yI)cyclohexyl)ethyl)-4-(2-methoxythiazol-4-yl)benzamide] | < 0.05
16 | O=C(Nc1ccc(F)c(F)c1)N[C@H]1CC[C@H](c2ccnc3ccc(F)cc32)CC1 [Example 123, 1-(3,4-difluorophenyl)-3-(trans-4-(6-fluoroquinolin-4-yl)cyclohexyl)urea] | < 0.25
17 | C=CC[C@@H](NC(=O)c1ccc(Cl)cc1)[C@H]1CC[C@@H](c2ccnc3ccc(F)cc32)CC1 [Example 198, 4-chloro-N—((R)-1-((1s, 4S)-4-(6-fluoroquinolin-4-yl)cyclohexyl)but-3-en-1-yl) benzamide] | < 0.05
18 | C[C@@H](NC(=O)c1ccc(-c2nnco2)cc1)[C@H]1CC[C@@H](c2ccnc3ccc(F)cc32)CC1 [Example 244, N-((R)-1-((1s,4S)-4-(6-fluoroquinolin-4-yl)cyclohexyl)ethyl)-4-(1,3,4-oxadiazol-2-yl)benzamide] | < 0.05
19 | O=C(N[C@H]1CC[C@@H](c2ccnc3ccc(F)cc32)CC1)c1ccc(Cl)cc1 [Example 149, 4-chloro-N-(cis-4-(6-fluoroquinolin-4-yl)cyclohexyl)benzamide] | < 0.25
20 | Cc1c(C2CCC(C(C)NC(=O)c3ccc(-c4ccccc4)cc3)CC2)ccnc1F (single isomer, unassigned) [Example 222, N-(1-(4-(2-fluoro-3-methylpyridin-4-yl)cyclohexyl)ethyl)-[1,1′-biphenyl]-4-carboxamide] | < 2

More lines, now with the values ahead:

Row | IC50 [µM] | SMILES
21 | < 0.05 | C[C@@H](NC(=O)c1ccc(-c2cscn2)cc1)[C@H]1CC[C@@H](c2ccnc3ccc(F)cc32)CC1 [Example 243, N-((R)-1-((1s,4S)-4-(6-fluoroquinolin-4-yl)cyclohcxyl)cthyl)-4-(thiazol-4-yl)benzamide]
22 | < 0.05 | Cc1cc(C2CCC(C(C)NC(=O)c3ccc(Cl)cc3)CC2)ccn1 (single isomer, unassigned) [Example 157b, 4-Chloro-N-(1-(4-(2-methylpyridin-4-yl)cyclohexyl)ethyl) Benzamide]
23 | < 0.05 | CCC(NC(=O)c1ccc(C#N)cc1)C1CCC(c2ccnc3ccc(F)cc23)CC1 (single isomer, unassigned) [Example 165d, 4-Cyano-N-(1-(4-(6-fluoroquinolin-4-yl)cyclohexyl)propyl)benzamide]
24 | < 0.05 | C[C@@H](NC(=O)c1ccc(Cl)cc1)[C@H]1CC[C@@H](c2ccnc3ccc(F)cc32)CC1 [Example 47, 4-Chloro-N—((R)-1-((1 s,4S)-4-(6-fluoroquinolin-4-yl)cyclohexyl)ethyl)benzamide]
25 | < 0.05 | C[C@@H](NC(=O)c1ccccc1)[C@H]1CC[C@@H](c2ccnc3ccc(F)cc32)CC1 [Example 48, N-((R)-1-((1s,4S)-4-(6-fluoroquinolin-4-yl)cyclohexyl)ethyl)benzamide]
26 | < 0.05 | CC[C@@H](NC(=O)c1ccc(Cl)cc1)[C@H]1CC[C@H](c2cnc3ccccc3c2)CC1 (single isomer, unassigned) [Example 203c]
27 | < 2 | O=C(NCC1CCN(c2ccnc3ccc(F)cc23)CC1)c1ccc(Cl)cc1 [Example 88]
28 | < 0.05 | CCC(NC(=O)c1ccc(-n2cccc2)cc1)[C@H]1CC[C@@H](c2ccnc3ccc(C(F)(F)F)cc32)CC1 (stereo partly drawn) [Example 255, 4-(1H-pyrrol-1-yl)-N-(1-((1s, 4s)-4-(6-(trifluoromethyl)quinolin-4-yl)cyclohexyl)propyl)benzamide]
29 | < 0.05 | COc1ccc(C(=O)N[C@H](C)[C@H]2CC[C@@H](c3ccnc4ccc(F)cc43)CC2)cc1 [Example 68, N-((R)-1-((1s,4S)-4-(6-fluoroquinolin-4-yl)cyclohexyl)ethyl)-4-methoxybenzamide]
30 | < 0.05 | C[C@@H](NC(=O)c1ccc(-c2cnco2)cc1)[C@H]1CC[C@@H](c2ccnc3ccc(F)cc32)CC1 [Example 250, N-((R)-1-((1s,4S)-4-(6-fluoroquinolin-4-yl)cyclohexyl)ethyl)-4-(oxazol-5-yl)benzamide]
31 | < 0.25 | Cc1nnc(-c2ccc(C(=O)N[C@H](C)[C@H]3CC[C@@H](c4ccnc5ccc(F)cc54)CC3)cc2)o1 [Example 232, N—((R)-1-((1s,4S)-4-(6-fluoroquinolin-4-yl)cyclohexyl)ethyl)-4-(5-methyl-1,3,4-oxadiazol-2-yl)benzamide]
32 | < 2 | C=CC[C@@H](NC(=O)c1ccc(-c2ccccc2)cc1)[C@H]1CC[C@@H](c2ccnc3ccc(F)cc32)CC1 [Example 199, N—((R)-1-((is, 4S)-4-(6-fluoroquinolin-4-yl)cyclohexyl)but-3-en-1-yl)-[1,1′-biphenyl]-4-carboxamide]
33 | < 0.05 | C[C@@H](NC(=O)c1ccc(-n2ccnc2)cc1)[C@H]1CC[C@@H](c2ccnc3ccc(F)cc32)CC1 [Example 196, N-((R)-1-(cis-4-(6-fluoroquinolin-4-yl)cyclohexyl)ethyl)-4-(1H-imidazol-1-yl)benzamide]
34 | < 0.05 | Cc1cnccc1C1CCC(C(C)NC(=O)c2ccc(Cl)cc2)CC1 (stereo not drawn) [Example 160a, 4-chloro-N-(1-(4-(3-methylpyridin-4-yl)cyclohexyl)ethyl)benzamide]
35 | < 0.25 | CCC(NC(=O)c1ccc(Cl)cc1)C1CCC(c2cccc(C(F)F)n2)CC1 (mixture of isomers) [Example 231a, 4-chloro-N-(1-(4-(6-(difluoromethyl)pyridin-2-yl)cyclohexyl)propyl)benzamide]
36 | < 2 | C[C@@H](NS(=O)(=O)c1ccc(Cl)cc1)[C@H]1CC[C@@H](c2ccnc3ccc(F)cc32)CC1 [Example 43, 4-chloro-N-((R)-1-((1s,4S)-4-(6-fluoroquinolin-4-yl)cyclohcxyl)ethyl)benzenesulfonamide]
